The test system of the first series is Wheat(var. Merica) (Triticum aestivum). Description: Postemergence herbicidal activity, selectivity to wheat. In kind it is in vivo. Conditions: post-emergence, 336 h, Table 3, rate 62.5 (unit inferred), crop injury, read-out: Post-emergent % control TRZAS. As for the experimental part: (§1) Seeds of the desired test plant species were planted in Grace-Sierra MetroMix® 306 planting mixture, which typically has a pH of 6.0 to 6.8 and an organic matter content of about 30 percent, in plastic pots with a surface area of 64 square centimeters. When required to ensure good germination and healthy plants, a fungicide treatment and/or other chemical or physical treatment was applied. The plants were grown for 7-21 days in a greenhouse with an approximate 15 hr photoperiod which was maintained at about 23-29° C. during the day and 22-28° C. during the night. Nutrients and water were added on a regular basis and supplemental lighting was provided with overhead metal halide 1000-Watt lamps as necessary. The plants were employed for testing when they reached the first or second true leaf stage. A weighed amount, determined by the highest rate to be tested, of each test compound was placed in a 20 mL glass vial and was dissolved in 4 mL of a 97:3 v/v (volume/volume) mixture of acetone and dimethyl sulfoxide (DMSO) to obtain concentrated stock solutions. […] The concentrated stock solutions obtained were diluted with an aqueous mixture containing acetone, water, isopropyl alcohol, DMSO, At plus 411 F crop oil concentrate, and Triton X-155 surfactant in a 48.5:39:10:1.5:1.0:0.02 v/v ratio to obtain spray solutions of known concentration. The solutions containing the highest concentration to be tested were prepared by diluting 2 mL aliquots of the stock solution with 13 mL of the mixture and lower concentrations were prepared by serial dilution of the stock solution. Approximately 1.5 mL aliquots of each solution of known concentration were sprayed evenly onto each of the test plant pots using a DeVilbiss atomizer driven by compressed air pressure of […] (140 to 280 kiloPascals) to obtain thorough coverage of each plant. Control plants were sprayed in the same manner with the aqueous mixture. In this test an application rate of 1 ppm results in the application of approximately 1 g/Ha. The treated plants and control plants were placed in a greenhouse as described above and watered by sub-irrigation to prevent wash-off of the test compounds. After 2 weeks the condition of the test plants as compared with that of the untreated plants was determined visually and scored on a scale of 0 to 100 percent where 0 corresponds to no injury and 100 corresponds to complete kill.
Consider `COC(=O)c1nc(-c2ccc(C)cc2)cc(N)c1Cl` [Compound 20, Methyl 4-amino-3-chloro-6-(4-methylphenyl)pyridine-2-carboxylate], for which the pest or weed control at 62.5 µg/mL was 10%.
For `Cc1ccc(-c2cc(N)c(Cl)c(C(=O)O)n2)cc1C` [Compound 132, 4-amino-3-chloro-6-(3,4-dimethylphenyl)pyridine-2-carboxylic acid], the pest or weed control at 62.5 µg/mL is 0%.

The next series concerns Pigweed (redroot) (Amaranthus retroflexus). Description: Postemergence herbicidal activity, greenhouse spray. Format: in vivo. The conditions noted are these: Amaranthus retroflexus, post-emergence, 336 h; Table 3; rate 62.5 (unit inferred); visual score after 2 weeks; read-out: Post-emergent % control AMARE. Summed up: (§2)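 Test compounds, serially diluted into an aqueous acetone–isopropanol–DMSO vehicle with crop oil concentrate and Triton X-155, were atomizer-sprayed over plants at the 1–2 true leaf stage. Plants grew 7–21 days beforehand under ~15 h light; sub-irrigation followed treatment, with vehicle-sprayed controls.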
As to `COC(=O)c1nc(-c2ccc(C)cc2)cc(N)c1Cl` [Compound 20, Methyl 4-amino-3-chloro-6-(4-methylphenyl)pyridine-2-carboxylate], the pest or weed control at 62.5 µg/mL was 100%.
As for `Cc1ccc(-c2cc(N)c(Cl)c(C(=O)O)n2)cc1C` [Compound 132, 4-amino-3-chloro-6-(3,4-dimethylphenyl)pyridine-2-carboxylic acid], the pest or weed control at 62.5 µg/mL came to 70%.

The series is the same for the next values; noted with them: Amaranthus retroflexus, post-emergence, 336 h; Table 4; rate 62.5 (unit inferred); visual score after 2 weeks; read-out: Post-emergent % control AMARE.
For `COC(=O)c1nc(-c2ccc(Cl)cc2C)cc(N)c1Cl` [Compound 45, Methyl 4-amino-3-chloro-6-(4-chloro-2-methylphenyl)pyridine-2-carboxylate], the pest or weed control at 62.5 µg/mL is 100%.
In the case of `Cc1cc(Cl)ccc1-c1cc(N)c(Cl)c(C(=O)O)n1` [Compound 155, 4-Amino-3-chloro-6-(4-chloro-2-methylphenyl)pyridine-2-carboxylic acid], the pest or weed control at 62.5 µg/mL turned out to be 100%.

Another series relates to Barnyardgrass (Echinochloa crus-galli). The description is as above. Conditions: Echinochloa crus-galli, post-emergence, 336 h, Table 1; rate 250 ppm; visual score after 2 weeks; read-out: Post-emergent % control ECHCG. In kind it is in vivo. Summed up: as §2
In the case of `COC(=O)c1nc(-c2ccc(C)cc2)cc(N)c1Cl` [Compound 20, Methyl 4-amino-3-chloro-6-(4-methylphenyl)pyridine-2-carboxylate], the pest or weed control at 250 ppm came out at 70%.

The series is the same for the next values; noted with them: Echinochloa crus-galli, post-emergence, 336 h, Table 1; rate 500 ppm; visual score after 2 weeks; read-out: Post-emergent % control ECHCG.
Take `Cc1ccc(-c2cc(N)c(Cl)c(C(=O)O)n2)cc1C` [Compound 132, 4-amino-3-chloro-6-(3,4-dimethylphenyl)pyridine-2-carboxylic acid]: the pest or weed control at 500 ppm was 80%.

The next series concerns Yellow nutsedge (Cyperus esculentus). Described as above. Format: in vivo. Conditions: Cyperus, post-emergence, 336 h, Table 1; rate 250 ppm; visual score after 2 weeks; read-out: Post-emergent % control CYPES. Summed up: as §2
In the case of `COC(=O)c1nc(-c2ccc(C)cc2)cc(N)c1Cl` [Compound 20, Methyl 4-amino-3-chloro-6-(4-methylphenyl)pyridine-2-carboxylate], the pest or weed control at 250 ppm was 50%.

Still in this series, the particulars now being: Cyperus, post-emergence, 336 h, Table 1; rate 500 ppm; visual score after 2 weeks; read-out: Post-emergent % control CYPES.
Consider `Cc1ccc(-c2cc(N)c(Cl)c(C(=O)O)n2)cc1C` [Compound 132, 4-amino-3-chloro-6-(3,4-dimethylphenyl)pyridine-2-carboxylic acid], for which the pest or weed control at 500 ppm stood at 0%.

Another series concerns Cocklebur (Xanthium strumarium). Described as above. In kind it is in vivo. Conditions: Xanthium strumarium, post-emergence, 336 h; Table 1; rate 250 ppm; visual score after 2 weeks; read-out: Post-emergent % control XANST. The method, boiled down: as §2
As for `COC(=O)c1nc(-c2ccc(C)cc2)cc(N)c1Cl` [Compound 20, Methyl 4-amino-3-chloro-6-(4-methylphenyl)pyridine-2-carboxylate], the pest or weed control at 250 ppm was 100%.

The same series, now with this note: Xanthium strumarium, post-emergence, 336 h; Table 1; rate 500 ppm; visual score after 2 weeks, 0 no injury, 100 complete kill; read-out: Post-emergent % control XANST.
Take `Cc1ccc(-c2cc(N)c(Cl)c(C(=O)O)n2)cc1C` [Compound 132, 4-amino-3-chloro-6-(3,4-dimethylphenyl)pyridine-2-carboxylic acid]: the pest or weed control at 500 ppm amounted to 100%.

The test system of another series is Lambsquarter (Chenopodium album). Described as above. Format: in vivo. The conditions noted are these: Chenopodium album, post-emergence, 336 h; Table 1; rate 250 ppm; visual score after 2 weeks; read-out: Post-emergent % control CHEAL. Summed up: as §2
As for `COC(=O)c1nc(-c2ccc(C)cc2)cc(N)c1Cl` [Compound 20, Methyl 4-amino-3-chloro-6-(4-methylphenyl)pyridine-2-carboxylate], the pest or weed control at 250 ppm is 100%.

Still in this series, the particulars now being: Chenopodium album, post-emergence, 336 h; Table 1; rate 500 ppm; visual score after 2 weeks; read-out: Post-emergent % control CHEAL.
Consider `Cc1ccc(-c2cc(N)c(Cl)c(C(=O)O)n2)cc1C` [Compound 132, 4-amino-3-chloro-6-(3,4-dimethylphenyl)pyridine-2-carboxylic acid], for which the pest or weed control at 500 ppm turned out to be 90%.

Tested on in a further series: not given
Assay: not given
Conditions: not given
As usually defined, the melting point is the temperature of the solid-liquid transition. Molecule `COC(=O)c1nc(-c2ccc(C)cc2)cc(N)c1Cl` [Compound 20, Methyl 4-amino-3-chloro-6-(4-methylphenyl)pyridine-2-carboxylate] displayed a melting point of 111 to 113 °C.
In turn, `COC(=O)c1nc(-c2ccc(Cl)cc2C)cc(N)c1Cl` [Compound 45, Methyl 4-amino-3-chloro-6-(4-chloro-2-methylphenyl)pyridine-2-carboxylate] returned a melting point of 114 to 115 °C.
Molecule `Cc1cc(Cl)ccc1-c1cc(N)c(Cl)c(C(=O)O)n1` [Compound 155, 4-Amino-3-chloro-6-(4-chloro-2-methylphenyl)pyridine-2-carboxylic acid] gave a melting point of 153 to 154 °C.
As for `Cc1ccc(-c2cc(N)c(Cl)c(C(=O)O)n2)cc1C` [Compound 132, 4-amino-3-chloro-6-(3,4-dimethylphenyl)pyridine-2-carboxylic acid], the melting point lay in the range of 192 to 194 °C.

A further series has as its system Corn (#14 3377) (Zea mays). In words: Postemergence herbicidal activity, selectivity to corn. Format: in vivo. Conditions: post-emergence, 336 h, Table 4, rate 62.5 (unit inferred), crop injury, read-out: Post-emergent % control ZEAMX. On the procedure: as §1
For `COC(=O)c1nc(-c2ccc(Cl)cc2C)cc(N)c1Cl` [Compound 45, Methyl 4-amino-3-chloro-6-(4-chloro-2-methylphenyl)pyridine-2-carboxylate], the pest or weed control at 62.5 µg/mL was determined as 0%.
As to `Cc1cc(Cl)ccc1-c1cc(N)c(Cl)c(C(=O)O)n1` [Compound 155, 4-Amino-3-chloro-6-(4-chloro-2-methylphenyl)pyridine-2-carboxylic acid], the pest or weed control at 62.5 µg/mL stood at 0%.

Another series has as its system Pigweed (redroot) (Amaranthus retroflexus). Description: Preemergence herbicidal activity, soil spray. Format: in vivo. The conditions noted are these: Amaranthus retroflexus, pre-emergence, 504 h; Table 5; rate 140 ppm; visual score after 3 weeks; read-out: Pre-emergent % control AMARE. The method, boiled down: (§3)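 Test species were planted first, then the soil of each pot was sprayed with compound solutions of known concentration made in water containing 0.1% Tween 155 from acetone–DMSO stocks. The growth matrix was a 70:30 loam and sand blend with pH near 8.1.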
As to `Cc1ccc(-c2cc(N)c(Cl)c(C(=O)O)n2)cc1C` [Compound 132, 4-amino-3-chloro-6-(3,4-dimethylphenyl)pyridine-2-carboxylic acid], the pest or weed control at 140 ppm was determined as 90%.

Staying with this series, now noted: Amaranthus retroflexus, pre-emergence, 504 h; Table 5; rate 560 ppm; visual score after 3 weeks; read-out: Pre-emergent % control AMARE.
As to `COC(=O)c1nc(-c2ccc(C)cc2)cc(N)c1Cl` [Compound 20, Methyl 4-amino-3-chloro-6-(4-methylphenyl)pyridine-2-carboxylate], the pest or weed control at 560 ppm is 100%.

In a further series the test system is Giant Foxtail (Setaria faberi). Description: Preemergence herbicidal activity, soil spray. Conditions: Setaria faberi, pre-emergence, 504 h, Table 5; rate 140 ppm; visual score after 3 weeks; read-out: Pre-emergent % control SETFA. Format: in vivo. The method, boiled down:
as §3
With `Cc1ccc(-c2cc(N)c(Cl)c(C(=O)O)n2)cc1C` [Compound 132, 4-amino-3-chloro-6-(3,4-dimethylphenyl)pyridine-2-carboxylic acid], the pest or weed control at 140 ppm came to 95%.

Still in this series, the particulars now being: Setaria faberi, pre-emergence, 504 h, Table 5; rate 560 ppm; visual score after 3 weeks; read-out: Pre-emergent % control SETFA.
In the case of `COC(=O)c1nc(-c2ccc(C)cc2)cc(N)c1Cl` [Compound 20, Methyl 4-amino-3-chloro-6-(4-methylphenyl)pyridine-2-carboxylate], the pest or weed control at 560 ppm was 100%.

The subject of another series is Crabgrass(large) (Digitaria sanguinalis). In words: Preemergence herbicidal activity, soil spray. In kind it is in vivo. Conditions: Digitaria sanguinalis, pre-emergence, 504 h; Table 5; rate 140 ppm; visual score after 3 weeks; read-out: Pre-emergent % control DIGSA. The method, boiled down:
as §3
As to `Cc1ccc(-c2cc(N)c(Cl)c(C(=O)O)n2)cc1C` [Compound 132, 4-amino-3-chloro-6-(3,4-dimethylphenyl)pyridine-2-carboxylic acid], the pest or weed control at 140 ppm was 100%.

The same series, now with this note: Digitaria sanguinalis, pre-emergence, 504 h; Table 5; rate 560 ppm; visual score after 3 weeks; read-out: Pre-emergent % control DIGSA.
On to `COC(=O)c1nc(-c2ccc(C)cc2)cc(N)c1Cl` [Compound 20, Methyl 4-amino-3-chloro-6-(4-methylphenyl)pyridine-2-carboxylate], for which the pest or weed control at 560 ppm turned out to be 100%.

The test system of the next series is Lambsquarter (Chenopodium album). In words: Preemergence herbicidal activity, soil spray. The conditions noted are these: Chenopodium album, pre-emergence, 504 h; Table 5; rate 140 ppm; visual score after 3 weeks; read-out: Pre-emergent % control CHEAL. In kind it is in vivo. The method, boiled down: as §3
Consider `Cc1ccc(-c2cc(N)c(Cl)c(C(=O)O)n2)cc1C` [Compound 132, 4-amino-3-chloro-6-(3,4-dimethylphenyl)pyridine-2-carboxylic acid], for which the pest or weed control at 140 ppm worked out at 100%.

The same series, now with this note: Chenopodium album, pre-emergence, 504 h; Table 5; rate 560 ppm; visual score after 3 weeks, 100 complete kill or no germination; read-out: Pre-emergent % control CHEAL.
In the case of `COC(=O)c1nc(-c2ccc(C)cc2)cc(N)c1Cl` [Compound 20, Methyl 4-amino-3-chloro-6-(4-methylphenyl)pyridine-2-carboxylate], the pest or weed control at 560 ppm amounted to 100%.

(Values after patent publication US6784137B2, “6-aryl-4-aminopicolinates and their use as herbicides” (Dow AgroSciences LLC, priority 2001, dated 2004).)
